Results reported in ChEMBL document CHEMBL1800066 (J Med Chem, 2011).
Values after ≈ are worked out from the molar mass of the structure shown. Active and inactive are the calls of the source. The calls are words filed in the database; no cut-off is given here.

Legend:
[1] = Antiproliferative activity against human GTL16 cells after 72 hrs; conditions: GTL 16, 72 h
[2] = Plasma clearance in rat at 2 mg/kg, iv and 5 mg/kg, po; assay type: ADME, organism-based
[3] = Volume of distribution at steady state in rat at 2 mg/kg, iv and 5 mg/kg, po; assay type: ADME, organism-based; conditions: in vivo, read-out: Vdss
[4] = Oral bioavailability in rat at 5 mg/kg; assay type: ADME, organism-based; conditions: in vivo
[5] = AUC (0 to infinity) in rat at 2 mg/kg, iv; assay type: ADME, organism-based; parameters: time infinity, dose 2 mg/kg, route intravenous; conditions: plasma
[6] = AUC (0 to infinity) in rat at 5 mg/kg, po; assay type: ADME, organism-based; parameters: dose 5 mg/kg, route oral, time infinity; conditions: plasma
Canis familiaris [7] = test: AUC (0 to infinity) in dog at 1 mg/kg, iv; assay type: ADME, organism-based, Canis lupus familiaris, Plasma; parameters: time infinity, dose 1 mg/kg, route intravenous; conditions: in vivo
Canis familiaris [8] = test: AUC (0 to infinity) in dog at 2 mg/kg, po; assay type: ADME, organism-based, Canis lupus familiaris, Plasma; parameters: time infinity, dose 2 mg/kg, route oral; conditions: in vivo
[9] = AUC (0 to infinity) in monkey at 0.25 mg/kg, iv; assay type: ADME, organism-based, Macaca mulatta; parameters: time infinity, dose 0.25 mg/kg, route intravenous; conditions: rhesus monkey, plasma
[10] = AUC (0 to infinity) in monkey at 0.5 mg/kg, po; assay type: ADME, organism-based, Macaca mulatta; parameters: time infinity, dose 0.5 mg/kg, route oral; conditions: rhesus monkey, plasma
[11] = Plasma clearance in mouse at 1 mg/kg, iv; assay type: ADME, organism-based; parameters: dose 1 mg/kg, route intravenous
[12] = Volume of distribution at steady state in dog at 1 mg/kg, iv; assay type: ADME, organism-based, Canis lupus familiaris; parameters: dose 1 mg/kg, route intravenous; conditions: in vivo, read-out: Vdss
[13] = Volume of distribution at steady state in monkey at 0.25 mg/kg, iv; assay type: ADME, organism-based, Macaca mulatta; parameters: dose 0.25 mg/kg, route intravenous; conditions: rhesus monkey, in vivo, read-out: Vdss
[14] = Half life in mouse at 1 mg/kg, iv; assay type: ADME, organism-based; parameters: dose 1 mg/kg, route intravenous; conditions: in vivo
[15] = Half life in monkey at 0.25 mg/kg, iv; assay type: ADME, organism-based, Macaca mulatta; parameters: dose 0.25 mg/kg, route intravenous; conditions: rhesus monkey, in vivo
[16] = Cmax in mouse at 2 mg/kg, po; assay type: ADME, organism-based; parameters: dose 2 mg/kg, route oral; conditions: in vivo
[17] = Cmax in rat at 5 mg/kg, po; assay type: ADME, organism-based; parameters: dose 5 mg/kg, route oral; conditions: in vivo
[18] = Cmax in dog at 2 mg/kg, po; assay type: ADME, organism-based, Canis lupus familiaris; parameters: dose 2 mg/kg, route oral; conditions: in vivo
[19] = Cmax in monkey at 0.5 mg/kg, po; assay type: ADME, organism-based, Macaca mulatta; parameters: dose 0.5 mg/kg, route oral; conditions: rhesus monkey, in vivo
[20] = Tmax in mouse at 2 mg/kg, po; assay type: ADME, organism-based; parameters: dose 2 mg/kg, route oral; conditions: in vivo
[21] = Tmax in monkey at 0.5 mg/kg, po; assay type: ADME, organism-based, Macaca mulatta; parameters: dose 0.5 mg/kg, route oral; conditions: rhesus monkey, in vivo
Canis familiaris [22] = test: Oral bioavailability in dog at 2 mg/kg; assay type: ADME, organism-based, Canis lupus familiaris; conditions: in vivo
[23] = Oral bioavailability in monkey at 0.5 mg/kg; assay type: ADME, organism-based, Macaca mulatta; conditions: rhesus monkey, in vivo
Cytochrome P450 2D6 = Cytochrome P450 2D6 (Homo sapiens, UniProt P10635); test: Inhibition of CYP2D6; assay type: ADME
[24] = Solubility of the compound at pH 7.4; assay type: physicochemical; conditions: buffer
[25] = target: T1, Hepatocyte growth factor receptor (Homo sapiens, UniProt P08581); test: Inhibition of recombinant human c-MET phosphorylation at C-terminal Y1230
[26] = target: T1, Hepatocyte growth factor receptor; test: Inhibition of recombinant human c-MET phosphorylation at C-terminal Y1234
[27] = target: T1, Hepatocyte growth factor receptor; test: Inhibition of recombinant human c-MET phosphorylation at C-terminal Y1235
[28] = target: T1, Hepatocyte growth factor receptor; test: Inhibition of c-MET overexpressed in human GTL-16 cells assessed as phosphorylation at C-terminal Y1234 after 2 hrs by Western blot analysis; assay type: cell-based
[29] = target: T1, Hepatocyte growth factor receptor; test: Inhibition of c-MET overexpressed in human GTL-16 cells assessed as phosphorylation at C-terminal Y1235 after 2 hrs by Western blot analysis; assay type: cell-based
[30] = target: T1, Hepatocyte growth factor receptor; test: Binding affinity to human recombinant His6-tagged phosphorylated c-Met cytosolic domain
[31] = target: T1, Hepatocyte growth factor receptor; test: Binding affinity to human recombinant His6-tagged unphosphorylated c-Met cytosolic domain
[32] = target: Hepatocyte growth factor receptor (Homo sapiens, UniProt P08581, N1100Y)
[33] = target: Hepatocyte growth factor receptor (Homo sapiens, UniProt P08581, Y1235D)
[34] = target: Hepatocyte growth factor receptor (Homo sapiens, UniProt P08581, M1250T)
[35] = target: Vascular endothelial growth factor receptor 1 (Homo sapiens, UniProt P17948); test: Inhibition of human Flt1
[36] = target: Receptor-type tyrosine-protein kinase FLT3 (Homo sapiens, UniProt P36888); test: Inhibition of human Flt3
[37] = target: Vascular endothelial growth factor receptor 2 (Homo sapiens, UniProt P35968); test: Inhibition of human KDR
[38] = target: Fibroblast growth factor receptor 3 (Homo sapiens, UniProt P22607); test: Inhibition of human FGFR3
[39] = target: BDNF/NT-3 growth factors receptor (Homo sapiens, UniProt Q16620); test: Inhibition of human TrkB
[40] = target: Fibroblast growth factor receptor 1 (Homo sapiens, UniProt P11362); test: Inhibition of human FGFR1
[41] = target: Vascular endothelial growth factor receptor 3 (Homo sapiens, UniProt P35916); test: Inhibition of human Flt4
[42] = target: Tyrosine-protein kinase JAK2 (Homo sapiens, UniProt O60674); test: Inhibition of human JAK2
Aurora kinase A = Aurora kinase A (Homo sapiens, UniProt O14965); test: Inhibition of human Aurora A
[43] = target: Tyrosine-protein kinase ABL1 (Homo sapiens, UniProt P00519); test: Inhibition of human Abl
[44] = target: Platelet-derived growth factor receptor alpha (Homo sapiens, UniProt P16234); test: Inhibition of human PDGFR-alpha
Mus musculus [45] = test: Inhibition of c-Met phosphorylation at Y1349 in human GTL16 cells xenografted in po dosed CD1 nu/nu mouse measured 1 hr post dosing by Western blot analysis; conditions: CD1, GTL 16, 1 h
GTL 16 = test: Antitumor activity against human GTL16 cells xenografted in CD1 nu/nu mouse assessed as suppression of tumor growth at 10 to 100 mg/kg, po BID; assay type: functional, organism-based
Mus musculus [46] = test: Toxicity in human GTL16 cells xenografted CD1 nu/nu mouse assessed as mortality at 10 to 100 mg/kg, po BID; assay type: organism-based; parameters: dose 10-100 mg/kg, route oral; conditions: in vivo
Mus musculus [47] = test: Toxicity in human GTL16 cells xenografted CD1 nu/nu mouse assessed as mortality at 10 to 200 mg/kg, po qd; assay type: organism-based; parameters: dose 10-200 mg/kg, route oral; conditions: in vivo
Mus musculus [48] = test: Toxicity in human GTL16 cells xenografted CD1 nu/nu mouse assessed as change in median body weight at 10 to 100 mg/kg, po BID; assay type: organism-based; parameters: dose 10-100 mg/kg, route oral; conditions: in vivo
Mus musculus [49] = test: Inhibition of c-Met phosphorylation at Y1365 in human GTL16 cells xenografted in CD1 nu/nu mouse at 10 to 100 mg/kg, po BID measured after 4 hrs by immunostaining assay; assay type: functional, organism-based
Mus musculus [50] = test: Inhibition of c-Met phosphorylation at Y1349 in human GTL16 cells xenografted in CD1 nu/nu mouse at 10 to 100 mg/kg, po BID measured after 4 hrs by immunostaining assay; assay type: functional, organism-based
Mus musculus [51] = test: Inhibition of Akt phosphorylation at S473 in human GTL16 cells xenografted in CD1 nu/nu mouse at 10 to 100 mg/kg, po BID measured after 4 hrs by immunostaining assay; assay type: functional, organism-based
[52] = Inhibition of potassium channel IKr
[53] = target: T1, Hepatocyte growth factor receptor

CN(C[C@@H]1COCCO1)S(=O)(=O)Nc1ccc2ccc3ncc(-c4cnn(C)c4)cc3c(=O)c2c1 [MK-2461]
IC50 [1]: 440 nM | clearance [2]: 9.1 mL/min/kg | Vd [3]: 0.4 L/kg | bioavailability [4]: 62% | AUC(0-inf) [5]: 7.6 µM·h | AUC(0-inf) [6]: 11.8 µM·h | AUC (Canis familiaris [7]): 8.4 µM·h | AUC (Canis familiaris [8]): 13.7 µM·h | AUC(0-inf) [9]: 1 µM·h | AUC(0-inf) [10]: 0.4 µM·h | clearance [11]: 83 mL/min/kg | Vd [12]: 1.1 L/kg | Vd [13]: 0.5 L/kg | half-life [14]: 30 min | half-life [15]: 48 min | Cmax [16]: 410 nM | Cmax [17]: 4.2 µM | Cmax [18]: 2500 nM | Cmax [19]: 120 nM | Tmax [20]: 18 min | Tmax [21]: 3 h | F (Canis familiaris [22]): 13% | bioavailability [23]: 14% | IC50 (Cytochrome P450 2D6): > 100 µM | solubility [24]: 3 µg/mL (≈ 6.05 µM) | IC50 [25]: 900 nM | IC50 [26]: 900 nM | IC50 [27]: 900 nM | IC50 [28]: > 2500 nM | IC50 [29]: > 2500 nM | Kd [30]: 4 nM | Kd [31]: 25 nM | IC50 [32]: 1.5 nM | IC50 [33]: 0.5 nM | IC50 [34]: 0.4 nM | IC50 [35]: 10 nM | IC50 [36]: 22 nM | IC50 [37]: 44 nM | IC50 [38]: 50 nM | IC50 [39]: 61 nM | IC50 [40]: 65 nM | IC50 [41]: 78 nM | IC50 [42]: 230 nM | IC50 (Aurora kinase A): 290 nM | IC50 [43]: 7.8 µM | IC50 [44]: < 100 nM | IC50 (Mus musculus [45]): 1000 nM | Activity (GTL 16): Active | Activity (Mus musculus [46]): Non-toxic | Activity (Mus musculus [47]): Non-toxic | Activity (Mus musculus [48]): Non-toxic | inhibition (Mus musculus [49]): Active | inhibition (Mus musculus [50]): Active | inhibition (Mus musculus [51]): Active | IC50 [52]: > 30 µM | IC50 [53]: 2 nM
